Results: patent US10053477B2, “Spirocyclic aryl phosphorus oxide and aryl phosphorus sulfide” (QILU PHARMACEUTICAL CO., LTD., priority 2014, dated 2018)

Key:
ALK wild-type = target: T1, ALK wild-type (Homo sapiens, UniProt Q9UM73); experiment: ALK wild-type enzymatic inhibition (HTRF); type: biochemical; settings: 30 μM ATP
T1 construct: purchased Carna Biosciences (Japan)
Procedure: (§1) Enzyme: ALK wild-type, ALK C1156Y and ALK L1196M supplied by Carna Biosciences (Japan), EGFR T790M/L858R supplied by Life technology (Madison, Wis.).
(§2) HTRF kit: supplied by Cis-Bio International, with Eu-marked TK1 antibody, XL665- and biotin-labelled TK1 polypeptide substrates.
10 μl wild-type ALK enzyme reaction mixture system: 0.5 nM wild-type ALK, 1 μM biotin-TK1 peptide, 30 μM ATP. Reaction buffer: 50 mM Hepes (pH7.5), 10 mM MgCl2, 0.01 mM NaV3VO4.
(§3) Incubation was carried out for 60 minutes at room temperature. Detection was by Envision.

ALK L1196M = target: T2, ALK L1196M (Homo sapiens, UniProt Q9UM73, L1196M); experiment: ALK L1196M enzymatic inhibition (HTRF); type: biochemical; settings: 30 μM ATP
T2 construct: purchased Carna Biosciences (Japan)
Procedure: as §1, §2
Reaction buffer: 50 mM Hepes (pH7.5), 10 mM MgCl2, 0.01 mM NaV3VO4.
as §3

ALK C1156Y = target: T3, ALK C1156Y (Homo sapiens, UniProt Q9UM73, C1156Y); experiment: ALK C1156Y enzymatic inhibition (HTRF); type: biochemical; settings: 30 μM ATP
T3 construct: purchased Carna Biosciences (Japan)
Procedure: as §1, §2
Reaction buffer: 50 mM Hepes (pH7.5), 10 mM MgCl2, 0.01 mM NaV3VO4. […] Reaction was reacted at room temperature for 60 minutes.
as §3

EGFR T790M/L858R = target: T4, EGFR T790M/L858R (Homo sapiens, UniProt P00533, L858R/T790M); experiment: EGFR T790M/L858R enzymatic inhibition (HTRF); type: biochemical; settings: 20 μM ATP
T4 construct: purchased Life technology (Madison, Wis.)
Procedure: as §1, §2
The compound to be tested is diluted at a gradient by 3 times thereby giving 11 gradients starting from […] to 0.017 nM for the final concentration.
10 μl EGFR T790M/L858R enzyme reaction mixture system: 0.08 nM EGFR T790M/L858R, 1 μM biotin-TK1 peptide, 20 μM ATP. Reaction buffer: 50 mM Hepes (pH7.5), 10 mM MgCl2, 0.01 mM NaV3VO4. The reaction plate was white Proxiplate 384-Plus plate (PerkinElmer). Reaction was reacted at room temperature for 60 minutes.
Detecting reaction: 10 μl testing reagent was added to the reaction plate, the final concentration of Antibody was 2 nM, XL665 was 62.5 nM. Incubation was carried out for 60 minutes at room temperature. Detection was by Envision.

[1] = system: LU-01-0015 xenotransplantation (PDX) from lung cancer patients; experiment: In vivo efficacy, LU-01-0015 xenotransplantation (PDX) from lung cancer patients; set-up: species or system BALB/c nude mice; settings: 25 mg/kg orally everyday
Excerpt: BALB/c nude mice, female, 6 to 8 weeks, about 18 to 22 g bodyweight, was kept in a special environment without pathogens, and a single ventilated cage (5 mice per cage). Beddings and water in all the cages were disinfected before use. […] 80 mice were supplied by Shanghai BK Laboratory Animal Co., LTD for study. Each mouse was subcutaneously implanted tumor tissue (20-30 mm^3) at right flank for growth of tumor. When the average tumor volume reached about 250-300 mm^3, the assay started. Test compounds were delivered orally everyday, 25 mg/kg. Tumor size was measured with two-dimensional caliper every 3 days, size was recorded by mm^3, and calculated by the following formula: V=V=0.5a×b2, where a and b are respectively the long diameter and short diameter length of the tumor. The antitumor efficacy was determined by dividing the average increased tumor volume in compound-treated animal by the average increased tumor volume in untreated animal.

[2] = system: LU-01-0319 Crizotinib resistance model; experiment: In vivo anti-tumor efficacy, Crizotinib resistant LU-01-0319 xenotransplantation (PDX) tumor; set-up: species or system BALB/c nude mice
Excerpt: LU-01-0319 xenotransplantation tumor models initially obtained from clinical sample through surgical resection were implanted into nude mice, which was defined as a batch of P0 (LU-01-0319-P0). The next batch was defined as P1 (LU-01-0319-P1) which was implanted tumors from P0. FP3 was regained from P2, the next batch was defined as FP4 which was implanted tumors from FP3. […] The continuous increasing tumors were defined as LU-01-0319 antitumor models. BALB/c nude mice, female, 6 to 8 weeks, about 18 to 22 g bodyweight, 75 mice were used for study, supplied by Shanghai BK Laboratory Animal Co., LTD. Tumour biopsies (about 30 mm^3) of LU-01-0319R FP6 were implanted subcutaneously on right side of each mouse for growth of tumor. […] Dose of Crizotinib was appropriately varied depending on the tumor size. When average tumor volume reached about ˜500 mm^3, the assay began. Once a day the compounds to be tested were orally administered. Tumor size were measured twice a week with a caliper at two dimensions, and calculated with the following formula: V=0.5a×b2, where a and b are respectively long diameter and short diameter of the tumor. The antitumor efficacy was determined by dividing the average increased tumor volume in compound-treated animal by the average increased tumor volume in untreated animal.

[3] = system: LU-01-0319 xenotransplantation (PDX) from lung cancer patients; experiment: In vivo efficacy, LU-01-0319 xenotransplantation (PDX) from lung cancer patients; set-up: species or system BALB/c nude mice; settings: 10 mg/kg orally everyday
Excerpt: BALB/c nude mice, female, 6 to 8 weeks, about 18 to 22 g bodyweight, was kept in a special environment without pathogens, and a single ventilated cage (5 mice per cage). Beddings and water in all the cages were disinfected before use. All the animal had free access to standard authorized commercially available lab diet. 80 mice were supplied by Shanghai BK Laboratory Animal Co., LTD for study. Each mouse was subcutaneously implanted tumor tissue (20-30 mm^3) at right flank for growth of tumor. When the average tumor volume reached about 250-300 mm^3, the assay started. Test compounds were delivered orally everyday, 10 mg/kg. Tumor size was measured with two-dimensional caliper every 3 days, size was recorded by mm^3, and calculated by the following formula: V=V=0.5a×b2, where a and b are respectively the long diameter and short diameter length of the tumor. The antitumor efficacy was determined by dividing the average increased tumor volume in compound-treated animal by the average increased tumor volume in untreated animal.

T4 sequence (P00533 25-1210 T790M/L858R): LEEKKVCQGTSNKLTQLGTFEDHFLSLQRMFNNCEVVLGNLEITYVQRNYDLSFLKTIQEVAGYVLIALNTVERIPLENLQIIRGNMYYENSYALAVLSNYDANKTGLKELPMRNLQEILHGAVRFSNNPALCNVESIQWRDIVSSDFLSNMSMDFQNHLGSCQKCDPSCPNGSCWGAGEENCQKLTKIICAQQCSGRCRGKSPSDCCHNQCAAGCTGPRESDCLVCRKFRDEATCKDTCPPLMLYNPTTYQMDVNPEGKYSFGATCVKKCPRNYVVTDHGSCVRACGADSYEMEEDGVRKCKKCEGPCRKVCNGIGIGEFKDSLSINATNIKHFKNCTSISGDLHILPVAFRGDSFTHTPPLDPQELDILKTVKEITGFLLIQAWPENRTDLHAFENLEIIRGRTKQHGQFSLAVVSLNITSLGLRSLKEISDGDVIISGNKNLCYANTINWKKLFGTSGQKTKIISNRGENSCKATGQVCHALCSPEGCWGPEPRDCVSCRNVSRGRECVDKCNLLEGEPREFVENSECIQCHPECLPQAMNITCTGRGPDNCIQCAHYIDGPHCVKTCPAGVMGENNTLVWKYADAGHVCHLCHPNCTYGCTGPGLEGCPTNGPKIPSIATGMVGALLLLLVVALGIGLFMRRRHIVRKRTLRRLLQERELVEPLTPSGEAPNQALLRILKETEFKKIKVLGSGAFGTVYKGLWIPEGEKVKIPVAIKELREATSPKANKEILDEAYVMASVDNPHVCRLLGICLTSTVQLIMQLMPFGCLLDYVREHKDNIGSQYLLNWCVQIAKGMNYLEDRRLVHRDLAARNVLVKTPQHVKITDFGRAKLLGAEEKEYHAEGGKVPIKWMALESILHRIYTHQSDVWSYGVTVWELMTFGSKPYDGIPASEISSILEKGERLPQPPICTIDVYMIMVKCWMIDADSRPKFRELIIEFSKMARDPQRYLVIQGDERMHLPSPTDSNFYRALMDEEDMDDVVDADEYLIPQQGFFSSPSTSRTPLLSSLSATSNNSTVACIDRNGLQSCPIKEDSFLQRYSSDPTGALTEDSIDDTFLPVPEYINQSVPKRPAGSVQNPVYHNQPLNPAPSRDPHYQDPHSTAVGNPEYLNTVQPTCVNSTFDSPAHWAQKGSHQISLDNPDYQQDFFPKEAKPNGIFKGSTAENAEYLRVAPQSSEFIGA
T2 sequence (Q9UM73 19-1620 L1196M): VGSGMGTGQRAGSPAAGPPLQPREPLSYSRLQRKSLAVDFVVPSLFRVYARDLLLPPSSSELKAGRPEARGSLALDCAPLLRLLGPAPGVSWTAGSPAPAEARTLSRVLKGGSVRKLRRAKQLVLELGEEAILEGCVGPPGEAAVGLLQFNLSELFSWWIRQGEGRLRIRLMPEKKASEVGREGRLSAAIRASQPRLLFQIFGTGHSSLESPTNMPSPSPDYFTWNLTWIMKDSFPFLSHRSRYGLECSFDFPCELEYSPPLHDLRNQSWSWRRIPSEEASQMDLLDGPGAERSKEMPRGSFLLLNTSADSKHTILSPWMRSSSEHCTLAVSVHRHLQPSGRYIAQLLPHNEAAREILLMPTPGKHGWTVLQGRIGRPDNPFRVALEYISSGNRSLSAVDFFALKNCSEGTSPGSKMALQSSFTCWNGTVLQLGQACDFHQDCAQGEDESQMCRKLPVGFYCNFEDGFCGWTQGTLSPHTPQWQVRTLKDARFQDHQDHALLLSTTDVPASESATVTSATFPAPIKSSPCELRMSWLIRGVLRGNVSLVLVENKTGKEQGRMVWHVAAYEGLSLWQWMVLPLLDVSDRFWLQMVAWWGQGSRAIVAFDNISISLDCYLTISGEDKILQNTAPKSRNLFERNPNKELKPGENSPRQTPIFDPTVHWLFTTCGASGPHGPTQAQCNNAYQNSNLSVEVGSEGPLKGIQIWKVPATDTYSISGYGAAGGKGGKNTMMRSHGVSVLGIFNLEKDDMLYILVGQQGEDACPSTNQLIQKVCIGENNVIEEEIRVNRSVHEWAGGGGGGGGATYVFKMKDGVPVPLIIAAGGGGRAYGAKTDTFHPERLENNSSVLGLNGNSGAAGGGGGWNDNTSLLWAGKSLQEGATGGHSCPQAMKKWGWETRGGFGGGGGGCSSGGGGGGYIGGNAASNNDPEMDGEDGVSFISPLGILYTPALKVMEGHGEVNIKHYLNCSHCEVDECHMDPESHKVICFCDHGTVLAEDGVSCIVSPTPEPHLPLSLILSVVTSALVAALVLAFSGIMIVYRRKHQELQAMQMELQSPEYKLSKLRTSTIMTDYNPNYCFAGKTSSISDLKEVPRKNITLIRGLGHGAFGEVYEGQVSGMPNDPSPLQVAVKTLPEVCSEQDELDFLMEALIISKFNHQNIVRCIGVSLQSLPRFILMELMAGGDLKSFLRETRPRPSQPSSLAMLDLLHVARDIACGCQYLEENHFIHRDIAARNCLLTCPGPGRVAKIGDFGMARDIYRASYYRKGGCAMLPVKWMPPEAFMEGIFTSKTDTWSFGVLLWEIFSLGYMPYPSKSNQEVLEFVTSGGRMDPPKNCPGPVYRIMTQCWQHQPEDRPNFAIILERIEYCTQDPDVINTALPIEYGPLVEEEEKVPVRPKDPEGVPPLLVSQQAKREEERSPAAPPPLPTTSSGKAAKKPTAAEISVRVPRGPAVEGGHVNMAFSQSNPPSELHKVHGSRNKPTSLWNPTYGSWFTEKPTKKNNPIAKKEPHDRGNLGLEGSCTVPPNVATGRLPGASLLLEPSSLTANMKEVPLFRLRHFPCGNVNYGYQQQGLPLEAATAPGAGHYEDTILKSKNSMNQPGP
T3 sequence (Q9UM73 19-1620 C1156Y): as the sequence (Q9UM73 19-1620 L1196M) above, with C1138Y, M1178L counted along it
T1 sequence (Q9UM73 19-1620): as the sequence (Q9UM73 19-1620 L1196M) above, with M1178L counted along it

SMILES: COc1cc(N2CCC3(CC2)CN(C)C3)ccc1Nc1ncc(Cl)c(Nc2ccccc2P(C)(C)=O)n1 [Compound 5, (2-((5-Chloro-2-((2-methoxy-4-(2-methyl-2,7-diazaspiro[3.5]nonan-7-yl)phenyl)amino)pyrimidin-4-yl)amino)phenyl)dimethyl phosphine oxide]
- IC50 (ALK wild-type): 1 to 100 nM
- IC50 (ALK L1196M): 1 to 100 nM
- IC50 (ALK C1156Y): 1 to 100 nM
- IC50 (EGFR T790M/L858R): 1 to 100 nM
- Tumor volume ([1]; 3 days): 259 mm^3
- Tumor volume ([1]; 6 days): 214 mm^3
- Tumor volume ([1]; 9 days): 172 mm^3
- Tumor volume ([1]; 12 days): 117 mm^3
- Tumor volume ([1]; 16 days): 104 mm^3
- Tumor volume ([1]; 19 days): 123 mm^3
- Tumor volume ([1]; 23 days): 124 mm^3

SMILES: COc1cc(N2CCC3(CCN(C)CC3)CC2)ccc1Nc1ncc(Cl)c(Nc2ccccc2P(C)(C)=O)n1 [Compound 9, (2-((5-Chloro-2-((2-methoxy-4-(9-methyl-3,9-diazaspiro[5.5]undecan-3-yl)phenyl)amino)pyrimidin-4-yl)amino)phenyl)dimethyl phosphine oxide]
- IC50 (ALK wild-type): 1 to 100 nM
- IC50 (ALK L1196M): 1 to 100 nM
- IC50 (ALK C1156Y): 1 to 100 nM
- IC50 (EGFR T790M/L858R): 1 to 100 nM
- Tumor volume ([1]; 3 days): 158 mm^3
- Tumor volume ([1]; 6 days): 108 mm^3
- Tumor volume ([1]; 9 days): 82 mm^3
- Tumor volume ([1]; 12 days): 58 mm^3
- Tumor volume ([1]; 16 days): 48 mm^3
- Tumor volume ([1]; 19 days): 46 mm^3
- Tumor volume ([1]; 23 days): 43 mm^3
- Tumor volume ([2]; 0 day, dosage 3 mg/Kg orally once a day): 502 mm^3
- Tumor volume ([2]; 0 day, dosage 10 mg/Kg orally once a day): 502 mm^3
- Tumor volume ([2]; 3 days, dosage 3 mg/Kg orally once a day): 722 mm^3
- Tumor volume ([2]; 3 days, dosage 10 mg/Kg orally once a day): 557 mm^3
- Tumor volume ([2]; 7 days, dosage 3 mg/Kg orally once a day): 859 mm^3
- Tumor volume ([2]; 7 days, dosage 10 mg/Kg orally once a day): 416 mm^3
- Tumor volume ([2]; 10 days, dosage 3 mg/Kg orally once a day): 1101 mm^3
- Tumor volume ([2]; 10 days, dosage 10 mg/Kg orally once a day): 261 mm^3
- Tumor volume ([2]; 13 days, dosage 3 mg/Kg orally once a day): 1218 mm^3
- Tumor volume ([2]; 13 days, dosage 10 mg/Kg orally once a day): 196 mm^3
- Tumor volume ([2]; 17 days, dosage 3 mg/Kg orally once a day): 1441 mm^3
- Tumor volume ([2]; 17 days, dosage 10 mg/Kg orally once a day): 133 mm^3
- Tumor volume ([2]; 19 days, dosage 3 mg/Kg orally once a day): 1521 mm^3
- Tumor volume ([2]; 19 days, dosage 10 mg/Kg orally once a day): 102 mm^3
- Tumor volume ([3]; 0 days): 371 mm^3
- Tumor volume ([3]; 2 days): 359 mm^3
- Tumor volume ([3]; 6 days): 369 mm^3
- Tumor volume ([3]; 9 days): 301 mm^3
- Tumor volume ([3]; 13 days): 305 mm^3
- Tumor volume ([3]; 16 days): 291 mm^3
- Tumor volume ([3]; 20 days): 203 mm^3
- Tumor volume ([3]; 23 days): 172 mm^3

SMILES: COc1cc(N2CCC3(CCN(C)CC3)CC2)ccc1Nc1ncc(Cl)c(N(C)c2ccccc2P(C)(C)=O)n1 [Compound 18, (2-((5-Chloro-2-((2-methoxy-4-(9-methyl-3,9-diazaspiro[5.5]undecan-3-yl)phenyl)amino)pyrimidin-4-yl)(methyl)amino)phenyl)dimethyl phosphine oxide]
- IC50 (ALK wild-type): > 1000 nM
- IC50 (ALK L1196M): > 1000 nM
- IC50 (ALK C1156Y): > 1000 nM
- IC50 (EGFR T790M/L858R): > 1000 nM

SMILES: COc1cc(N2CCC3(CCN(C)CC3)CC2)ccc1Nc1ncc(Cl)c(Oc2ccccc2P(C)(C)=O)n1 [Compound 19, (2-((5-Chloro-2-((2-methoxy-4-(9-methyl-3,9-diazaspiro[5.5]undecan-3-yl)phenyl)amino)pyrimidin-4-yl)oxy)phenyl)dimethyl phosphine oxide]
- IC50 (ALK wild-type): > 1000 nM
- IC50 (ALK L1196M): > 1000 nM
- IC50 (ALK C1156Y): > 1000 nM
- IC50 (EGFR T790M/L858R): > 1000 nM

SMILES: COc1cc(N2CCC3(CCN(C)CC3)CC2)c(Br)cc1Nc1ncc(Cl)c(Nc2ccccc2P(C)(C)=O)n1 [Compound 21, (2-((2-((5-Bromo-2-methoxy-4-(9-methyl-3,9-diazaspiro[5.5]undecan-3-yl)phenyl)amino)-5-chloropyrimidin-4-yl)amino)phenyl)dimethyl phosphine oxide]
- IC50 (ALK wild-type): 1 to 100 nM
- IC50 (ALK L1196M): 1 to 100 nM
- IC50 (ALK C1156Y): 1 to 100 nM
- IC50 (EGFR T790M/L858R): 1 to 100 nM

SMILES: COc1cc(N2CCC3(CCN(C)CC3)CC2)ncc1Nc1ncc(Cl)c(Nc2ccccc2P(C)(C)=O)n1 [Compound 24, (2-((5-Chloro-2-((4-methoxy-6-(9-methyl-3,9-diazaspiro[5.5]undecan-3-yl)pyridin-3-yl)amino)pyrimidin-4-yl)amino)phenyl)dimethyl phosphine oxide]
- IC50 (ALK wild-type): 1 to 100 nM
- IC50 (ALK L1196M): 1 to 100 nM
- IC50 (ALK C1156Y): 1 to 100 nM
- IC50 (EGFR T790M/L858R): 101 to 1000 nM

SMILES: CN1CCC2(CCC(c3ccc(Nc4ncc(Cl)c(Nc5ccccc5P(C)(C)=O)n4)c(OC(F)F)c3)CC2)CC1 [Compound 28, (2-((5-Chloro-2-((2-(difluoromethoxy)-4-(3-methyl-3-azaspiro[5.5]undecan-9-yl)phenyl)amino)pyrimidin-4-yl)amino)phenyl)dimethyl phosphine oxide]
- IC50 (ALK wild-type): 1 to 100 nM
- IC50 (ALK L1196M): 1 to 100 nM
- IC50 (ALK C1156Y): 1 to 100 nM
- IC50 (EGFR T790M/L858R): 1 to 100 nM

SMILES: COc1cc(C2CC3(CCN(C)CC3)C2)c(F)cc1Nc1ncc(Cl)c(Nc2ccccc2P(C)(C)=O)n1 [Compound 29, (2-((5-Chloro-2-((5-fluoro-2-methoxy-4-(7-methyl-7-azaspiro[3.5]nonan-2-yl)phenyl)amino)pyrimidin-4-yl)amino)phenyl)dimethyl phosphine oxide]
- IC50 (ALK wild-type): 1 to 100 nM
- IC50 (ALK L1196M): 1 to 100 nM
- IC50 (ALK C1156Y): 1 to 100 nM
- IC50 (EGFR T790M/L858R): 1 to 100 nM
